Source: patent publication US7250431B2, “Thiazole derivatives” (Hoffmann-La Roche Inc., priority 2003, dated 2007)

Target: T1, mouse NPY5-receptor (mNPY5) (Mus musculus, UniProt O70342)
T1 construct: The full-length cDNA encoding the mouse NPY5 (mNPY5) receptor was amplified from mouse brain cDNA; expressed in transfected cells; membranes used
T1 sequence (O70342 1-466): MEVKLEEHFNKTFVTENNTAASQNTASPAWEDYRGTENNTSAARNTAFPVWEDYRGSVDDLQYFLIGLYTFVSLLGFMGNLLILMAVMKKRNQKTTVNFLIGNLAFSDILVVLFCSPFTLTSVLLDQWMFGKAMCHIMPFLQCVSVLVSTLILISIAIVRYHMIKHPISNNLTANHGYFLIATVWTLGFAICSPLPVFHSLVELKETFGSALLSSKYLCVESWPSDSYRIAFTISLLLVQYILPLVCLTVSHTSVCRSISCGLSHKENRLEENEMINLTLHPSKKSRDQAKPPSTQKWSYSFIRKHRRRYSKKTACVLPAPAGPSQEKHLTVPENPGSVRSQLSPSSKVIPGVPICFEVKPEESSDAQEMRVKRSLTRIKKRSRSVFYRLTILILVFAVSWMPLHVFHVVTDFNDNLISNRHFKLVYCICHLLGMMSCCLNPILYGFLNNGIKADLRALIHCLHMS
Test: Radioligand competition binding
Conditions: membranes of HEK293 cells expressing recombinant mNPY5; 100 pM [125I]labelled peptide YY; 1 h at 22° C.; read-out: NPY5-R (mouse) IC50
Excerpt: The full-length cDNA encoding the mouse NPY5 (mNPY5) receptor was amplified from mouse brain cDNA using specific primers, designed based on the published sequence, and Pfu DNA-Polymerase. The amplification product was subcloned into the mammalian expression vector pcDNA3 using Eco RI and XhoI restriction sites. Positive clones were sequenced and one clone, encoding the published sequence was selected for generation of stable cell clones.
Human embryonic kidney 293 (HEK293) cells were transfected with 10 μg mNPY5 DNA using the lipofectamine reagent. Two days after transfection, geneticin selection (1 mg/ml) was initiated and several stable clones were isolated. One clone was further used for pharmacological characterization.
Human embryonic kidney 293 cells (HEK293), expressing recombinant mouse NPY5-receptor (mNPY5) were broken by three freeze/thawing cycles in hypotonic Tris buffer (5 mM, pH 7.4, 1 mM MgCl2), homogenized and centrifuged at 72,000×g for 15 min. The pellet was washed twice with 75 mM Tris buffer, pH 7.4, containing 25 mM MgCl2 and 250 mM sucrose, 0.1 mM phenylmethylsulfonylfluoride and 0.1 mM 1,10-pheneanthrolin, resuspended in the same buffer and stored in aliquots at −80° C. Protein was determined according to the method of Lowry using bovine serum albumine (BSA) as a standard. […]

IC50 [nM] | Structure (SMILES)
0.74 | Cc1ccccc1C(=O)c1cnc(Nc2ccc(NS(=O)(=O)c3cccc(F)c3)cc2)s1 [Example 5, 3-Fluoro-N-{4-[5-(2-methyl-benzoyl)-thiazol-2-ylamino]-phenyl}-benzenesulfonamide]
0.54 | Cc1ccccc1C(=O)c1cnc(Nc2cccc(NS(=O)(=O)c3cccs3)c2)s1 [Example 23, Thiophene-2-sulfonic acid {3-[5-(2-methyl-benzoyl)-thiazol-2-ylamino]-phenyl}-amide]
0.99 | Cc1ccccc1C(=O)c1cnc(Nc2ccc(CNS(=O)(=O)c3cc(F)ccc3C)cc2)s1 [Example 37, 5-Fluoro-2-methyl-N-{4-[5-(2-methyl-benzoyl)-thiazol-2-ylamino]-benzyl}-benzenesulfonamide]
